Reference: PMC5054302 (Molecular and biochemical parasitology, 2011)
Like-named read-outs stand apart in the source and are kept apart here.

Assays:
HepG2 cells = test: cells; type: cell-based, human; conditions: read-out: Hepatocyte counterscreen
[1] = tested on: cytochrome bc1 complex, L275F yeast cytochrome b mutant; type: biochemical, Saccharomyces cerevisiae; conditions: IC50 against L275F mutant enzyme divided by IC50 of wild-type enzyme
P. berghei liver stages = test: microbe, parasite or virus in culture; type: cell-based, Plasmodium berghei; conditions: for Selectivity index: IC50 against hepatocytes divided by IC50 for P. berghei liver stage development
[2] = tested on: cytochrome bc1 complex, M139L yeast cytochrome b mutant; type: biochemical, Saccharomyces cerevisiae; conditions: IC50 against M139L mutant enzyme divided by IC50 of wild-type enzyme
[3] = target: cytochrome bc1 complex, Y279S yeast cytochrome b mutant (Saccharomyces cerevisiae, UniProt P00163+P08067, Y279S); type: biochemical
[4] = tested on: P. falciparum TM90C2B (C2B isolates, Y268S cytochrome b); test: Radio-labeled hypoxanthine growth assay, atovaquone-resistant C2B isolates; type: cell-based, Plasmodium falciparum

CC(CCCCCC(F)(F)F)CC1=C(O)C(=O)c2ccccc2C1=O (stereo not shown) [NQ1, 2-OH-3-(2-methyl-trifluorooctyl)-naphthoquinone]
IC50 (HepG2 cells; MTT, HepG2 cells alone, 48 h): 6.83 µM | Relative efficacy [1]: < 1.0 | Selectivity index (P. berghei liver stages): 399 | Relative efficacy [2]: < 1.0

CCCCCCC(C)CC1=C(O)C(=O)c2c(C)cccc2C1=O (stereo not shown) [NQ2, 2-OH-3-(2-methyl-octyl)-8-methyl-naphthoquinone]
IC50 (HepG2 cells; MTT, HepG2 cells alone, 48 h): 2.48 µM | Relative efficacy ([3]; IC50 against Y279S mutant enzyme divided by IC50 of wild-type enzyme): 0.37 | Extent of inhibition of Y279S enzyme activity ([3]; at 500 nM, biphasic titration): did not reach complete inhibition | Selectivity index (P. berghei liver stages): 10.1

CCCCCCC(C)CC1=C(O)C(=O)c2ccccc2C1=O (stereo not shown) [S-10576, reference compound]
IC50 (HepG2 cells; MTT, HepG2 cells alone, 48 h): > 66.6 µM

Cc1cccc2c1C(=O)C(O)=C(CC(C)CCCCCC(F)(F)F)C2=O (stereo not shown) [NQ3, 2-OH-3-(2-methyl-trifluorooctyl)-8-methyl-naphthoquinone]
IC50 (HepG2 cells; MTT, HepG2 cells alone, 48 h): > 54.3 µM

O=C1C(O)=C([C@H]2CC[C@H](c3ccc(Cl)cc3)CC2)C(=O)c2ccccc21 [Atovaquone, reference compound]
IC50 (HepG2 cells; Homo sapiens, HepG2, 48 h): 38.4 µM | IC50 (P. berghei liver stages; Plasmodium berghei, HepG2, 48 h, read-out: IC50 against P. berghei): 0.0197 µM | IC50 [4]: 6.6 to 7.1 µM
